Molecules are shown by their SMILES.

The data set can be described thus: Storage stability in a liquid vehicle comprising a semifluorinated alkane.

For `CCCCCc1cc(O)c2c(c1)OC(C)(C)[C@@H]1CCC(C)=C[C@@H]21` [delta-9-Tetrahydrocannabinol (THC), (−)-(6aR,10aR)-6,6,9-Trimethyl-3-pentyl-6a,7,8,10a-tetrahydro-6H-benzo[c]chromen-1-ol], the “Storage period when dissolved or suspended in liquid vehicle comprising semifluorinated alkane” value (liquid vehicle comprising at least one semifluorinated alkane) was “up to 2 years”. Moreover, the “Stability when air was not excluded” value (liquid vehicle with high content of, or essentially consisting of, F4H5 or F6H8) is reported as “stable even when air was not excluded”.

These data come from patent publication US20190343793A1, “COMPOSITIONS COMPRISING A CANNABINOID RECEPTOR BINDING LIGAND” (NOVALIQ GMBH, priority 2016, published 2019).
